Reference: patent publication EP0091519A1, “Topical acylaminophenols” (Johnson & Johnson Products Inc., priority 1982, dated 1983)

How the values were obtained:
[1] = test system: arachidonic acid-induced epidermal proliferation; assay: Arachidonic acid-induced epidermal proliferation in guinea pig ear skin (3H-thymidine labelling, liquid scintillation counting); assay type: in vivo; conditions: for cpm S.E.: 25 µl topical on ear once daily for four days after 1% AA, mean ± S.E.; for inhibition in vivo at 1 %: Cavia porcellus, 1% drug topical, versus contralateral vehicle-treated ear, * statistically significant, + not significant due to variability, read-out: % Re-duction (cpm, proliferation); for effect on AA-induced proliferation (in words): topical application, 1% unless otherwise stated
Protocol: (§1) The effect of selected compositions on cutaneous inflammation caused by topical application of arachidonic acid was evaluated. In addition to inflammation, the proliferative response of the epidermis treated with arachidonic acid and the compositions was evaluated. Fourteen acylaminophenols were studied. The drugs were dissolved in propylene glycol plus ethanol (30:70) and were used at 1% concentrations unless otherwise stated. Fourteen groups of five guinea pigs each served as the experimental subjects. The dorsal skin of both ears was treated once daily for four days (9:00 am) with 25 µl 1% solution of AA in propylene glycol/ethanol (30/70). Immediately after this application, one ear of each guinea pig was randomly chosen for application of 25 µl of the test compound, while the contralateral ear received the vehicle, alone. During the four-day experimental period, DNA synthesized was labeled by continuous administration of a radioactive'precursor, ^3H-thymidine (3 i.p. injections/day of 10µCi each). Erythema developing in response to topical AA was measured daily on a subjective scale of 0 to 3; where 0 = none,1= mild, 2 = moderate, and 3 = intense. The average erythema scores were plotted as a function of time, and areas under the response curves were determined for expression of total erythema. On the fifth day, animals were killed and six mm diameter circular samples of dorsal skin from the central portion of the treatment sites were harvested and solubilized in NCS® solubilizer. These tissue solutions were acidified and a simple fluor (diphenyloxazole in toluene) was added for determination of radioactivity by liquid scintillation counting. Radioactivity expressed as counts-per-minute (cpm) correlate with the amount of proliferative activity in the epidermis.

[2] = test system: arachidonic acid-induced erythema; assay: Arachidonic acid-induced erythema in guinea pig ear skin (subjective score 0 to 3, area under response curve); assay type: in vivo; conditions: for Total Erythema: area under curve of average erythema score (0 to 3) over four days; for inhibition in vivo at 1 %: Cavia porcellus, versus contralateral vehicle-treated ear, read-out: % Re-duction (Total Erythema); for effect on AA-induced erythema (in words): topical application, 1% unless otherwise stated
Protocol: as §1

[3] = 1% drug in propylene glycol/ethanol (30:70), 6 mm skin sample on fifth day

| SMILES | cpm S.E. [1, 3] [cpm] | inhibition in vivo at 1 % [1] [%] | effect on AA-induced proliferation (in words) [1] | Total Erythema ([2]; 1% drug topical) | inhibition in vivo at 1 % ([2]; 1% drug topical) [%] | effect on AA-induced erythema (in words) [2] | cpm S.E. ([1]; 0.56% drug in propylene glycol/ethanol (30:70)) [cpm] | Total Erythema ([2]; 0.56% drug topical) |
| --- | --- | --- | --- | --- | --- | --- | --- | --- |
| CCCCCCC(=O)Nc1ccc(O)cc1 [4-n-heptanoylaminophenol] | 1435± 77 | 27.3 | good activity | 1.8 | 47 | good activity | – | – |
| CCCCCCCCCCCCCC(=O)Nc1ccc(O)cc1 [4-n-tetradecanoylaminophenol, reference compound] | 1681±296 | 15.1 | without substantial effect | 3.8 | 0 | without substantial effect | – | – |
| CCCCCCCCCCCC(=O)Nc1ccc(O)cc1 [4-n-dodecanoylaminophenol] | 2487±368 | 29 | good activity | 3.8 | 29 | good activity | – | – |
| CCCCCC(=O)Nc1ccc(O)cc1 [4-n-hexanoylaminophenol] | 1488±104 | 28.3 | good activity | 1.9 | 50 | good activity | – | – |
| CCCC(=O)Nc1ccc(O)cc1 [4-n-butyroylaminophenol, reference compound] | 2680±360 | 27.8 | significantly inhibited | 4.6 | 4.2 | without effect | – | – |
| O=C(Nc1ccc(O)cc1)c1ccccc1O | 1532± 91 | 23.3 | showed activity | 3.2 | 41.8 | showed activity | – | – |
| CCCCCCCCCC(=O)Nc1ccc(O)cc1 [4-n-decanoylaminophenol] | 1311± 48 | 37.5 | good activity | 2.0 | 47.4 | good activity | – | – |
| O=C(Nc1ccc(O)cc1)c1ccccc1 [4-benzoylaminophenol, reference compound] | 2214±316 | 4.2 | inactive | 3.8 | 20.8 | inactive | – | – |
| CCCCCCCC(=O)Nc1ccc(O)cc1 [4-n-octanoylaminophenol] | 1589±361 | 39.1 | good activity | 2.7 | 49 | good activity | – | – |
| CCC(=O)Nc1ccc(O)cc1 [4-propionylaminophenol, reference compound] | 1777±251 | 2.6 | without substantial effect | 5.5 | -14.6 | without substantial effect | – | – |
| CCCCCCCCCCCCCCCC(=O)Nc1ccc(O)cc1 [4-n-hexadecanoylaminophenol, reference compound] | – | – | without substantial effect | – | – | without substantial effect | 3275±463 | 4.8 |
| CCCCCCCCCCC(=O)Nc1ccc(O)cc1 [4-n-undecanoylaminophenol] | 1380±205 | 37.3 | good activity | 2.1 | 38.2 | good activity | – | – |
| CC(=O)Nc1ccc(O)cc1 [Acetaminophen, acetamidophenol, reference compound] | 3140±346 | 8 | no significant effect | 5.2 | 0 | no significant effect | – | – |
| CCCCCCCCC(=O)Nc1ccc(O)cc1 [4-n-nonanoylaminophenol] | 1472±135 | 20.9 | good activity | 2.1 | 34.4 | good activity | – | – |
